Entries after “also recorded” stand apart in the source; their conditions may differ. Like-named read-outs stand apart in the source and are kept apart here. One block for each compound: values may come before it.
Key:
[1] = Physical form of choline-based ionic liquids at room temperature; assay type: physicochemical
Procedure: Several ionic liquids comprising choline as a cation and various anions were synthesized. […] For anions not miscible with the aqueous choline bicarbonate solution, a co-solvent, such as ethanol, was added until a homogenous mixture formed. The mixture was stirred at room temperature until CO2 evolution ceased. Solvent was removed by rotary evaporation at 60° C. for 20 minutes, and each product was dried in a vacuum oven for 48 hours at 60° C.

[2] = male, Wistar, rat, in vivo
Procedure: (§1) Adult non-diabetic male Wistar rats were fasted overnight but given free access to water and subsequently dosed via intrajejunal injection with liraglutide and choline-hydrocinnamic acid. A fasting control group was dosed with a saline solution via intrajejunal injection. About 250 L of blood was collected at hourly intervals in order to determine the liraglutide serum concentration.
(§2) Adult non-diabetic male Wistar rats were fasted overnight but given free access to water and subsequently dosed via intrajejunal injection with liraglutide and one of various choline-based ionic liquids.

[3] = Liraglutide serum concentration after intrajejunal injection of liraglutide with choline-based ionic liquid; conditions: for Peak 5-Hour Liraglutide Concentration: non-diabetic rats
Procedure: as §1, §2

[4] = test system: non-diabetic male Wistar rats; test: Glucose excretion in urine after intrajejunal injection; assay type: in vivo, rat; conditions: intrajejunal injection at varying doses, urine from bladder 1.5 hours post-injection
Procedure: At 1.5 hours post-injection, urine was sampled from the bladder to determine glucose concentration. The obtained glucose concentration values, plotted as percent change in blood glucose levels with respect to initial reading versus dose level and change in glucose concentration in the urine collected from the bladder versus dose level (n=1), are shown in FIG. 13.

[5] = test system: non-diabetic male Wistar rats; test: Blood glucose levels after subcutaneous injection or liquid gavage in fasted non-diabetic rats; assay type: in vivo, rat
Procedure: A fasting control group was dosed orally with a saline solution. About 250 μL of blood was collected at regular intervals in order to determine the blood glucose level. The obtained values, plotted as mean percent change±standard error in blood glucose levels with respect to initial reading (n=4) versus time, are shown in FIG. 10. […] About 250 μL of blood was collected at regular intervals in order to determine the blood glucose level. The obtained values, plotted as mean percent change±standard error in blood glucose levels with respect to initial reading (n=4) versus time, are shown in FIG. 11.

[6] = test system: Streptozocin-induced diabetic male Wistar rats; test: Blood glucose levels after oral liquid gavage in rat model of Type 1 diabetes; assay type: in vivo; conditions: Type 1 diabetes model rats
Procedure: About 250 μL of blood was collected at regular intervals in order to determine the blood glucose level. The obtained values, plotted as mean percent change±standard error in blood glucose levels with respect to initial reading (n=4) versus time, are shown in FIG. 11.

[7] = test system: Streptozotocin-induced diabetic male Wistar rats; test: Plasma insulin after administration in rat model of Type 1 diabetes; assay type: in vivo; conditions: subcutaneous injection, oral liquid gavage or jejunum catheter
Procedure: A fasting control group was not treated. About 250 μL of blood was collected at regular intervals in order to determine the insulin serum concentration.

[8] = test system: non-diabetic male Wistar rats; test: Blood glucose levels after intrajejunal injection in fasted non-diabetic rats; assay type: in vivo, rat; conditions: for effect on blood glucose levels: 100 μL
Procedure: About 250 μL of blood was collected at regular intervals in order to determine the blood glucose level. The obtained values, plotted as mean percent change±standard error in blood glucose levels with respect to initial reading (n=3) versus time, are shown in FIG. 7.
About 250 μL of blood was collected at regular intervals in order to determine the blood glucose level. The obtained values, plotted as mean percent change±standard error in blood glucose levels with respect to initial reading (n=3) versus time, are shown in FIG. 8.
The obtained values, plotted as mean percent change±standard error in blood glucose levels with respect to initial reading (n=4) versus time, are shown in FIG. 9.

[9] = test system: non-diabetic male Wistar rats; test: 30-day daily oral gavage safety study
Procedure: Adult non-diabetic male Wistar rats were dosed daily for 30 days via oral gavage with either 25 or 100 uL Choline-Cinnamic Acid 1:1.5. Two placebo groups received either 25 or 100 uL saline. Animals were observed daily for general health and weight recorded. On day 31, all animals were euthanized, and tissue, blood and plasma samples collected for analysis.

[10] = in the presence of well-known permeation enhancers; cited from earlier work
[11] = cation:anion 1:1, room temperature
[12] = cation:anion 1:2, room temperature

Physical Form (Ratios Listed as Cation:Anion) [1, 11]: Solid | Physical Form (Ratios Listed as Cation:Anion) [1, 12]: Liquid | Peak 5-Hour Liraglutide Concentration [2]: 44 ng/mL | fold improvement of liraglutide concentration over choline-citronellic acid [2]: about 10 fold
Compound: CCCCC/C=C\C/C=C\CCCCCCCC(=O)O [Linoleic Acid]

Compound: Hydrocinnamic Acid (3-Phenylpropionic Acid)
blood concentration of liraglutide relative to those reported in the literature ([3]; liraglutide with choline-hydrocinnamic acid vs Buckley et al.): approximately 4,400 fold | liraglutide serum concentration ([3]; liraglutide with choline-hydrocinnamic acid, intrajejunal injection, rats): surprisingly high serum concentration | Peak 5-Hour Liraglutide Concentration ([3]; liraglutide with the ionic liquid, intrajejunal injection, listed as Choline-Hydrocinnamic acid): 2086 ng/mL | Peak 5-Hour Liraglutide Concentration ([3]; liraglutide with the ionic liquid, intrajejunal injection, listed as choline-hydrocinnamic acid): greater than 2000 ng/mL | fold improvement of liraglutide concentration over choline-citronellic acid ([3]; liraglutide with the ionic liquid, intrajejunal injection, rats): 500 fold | Physical Form (Ratios Listed as Cation:Anion) [1, 11]: Liquid at 1:1, 1:2 | Physical Form (Ratios Listed as Cation:Anion) [1, 12]: Liquid at 1:1, 1:2

Physical Form (Ratios Listed as Cation:Anion) [1, 11]: Liquid at 2:1, 1:1, 1:2 | Physical Form (Ratios Listed as Cation:Anion) [1, 12]: Liquid at 2:1, 1:1, 1:2 | Physical Form (Ratios Listed as Cation:Anion) ([1]; cation:anion 2:1, room temperature): Liquid at 2:1, 1:1, 1:2
Compound: CC(C)=CCCC(C)CC(=O)O (stereo not shown) [Citronellic Acid]
glucose concentration in the urine [4]: increasing glucose concentration in the urine | effect on blood glucose levels ([5]; oral liquid gavage, listed as choline-citronellic acid): reduced blood glucose levels; also recorded: dropped and recovered slowly with time | effect on blood glucose levels ([5]; subcutaneous injection): reduced blood glucose levels | effect on blood glucose levels [6]: continued to drop | insulin secretion (plasma insulin concentration) [7]: Stimulation of insulin secretion was observed | effect on blood glucose level ([8]; 10, 20, 50 and 100 μL): dropped in a dose-dependent manner | blood glucose levels, % of starting levels ([8]; 50 μL dose): about 50% | effect on blood glucose levels [8]: pronounced decrease in blood glucose levels | drop in blood glucose level from baseline ([8]; 100 μL dose): about 70%

Physical Form (Ratios Listed as Cation:Anion) [1, 11]: Liquid | Physical Form (Ratios Listed as Cation:Anion) [1, 12]: Solid
Compound: CCCCCCCC(=O)O [Octanoic Acid]
effect on blood glucose levels [8]: neither choline-octanoic acid nor choline-octenoic acid decreased blood glucose levels

Compound: O=C(O)C=Cc1ccccc1 [Cinnamic Acid]
plasma indicators of organ toxicity vs placebo ([9]; 25 or 100 uL daily oral gavage for 30 days, rats): not statistically significantly different | IHC staining of tight junction proteins Claudin-1 and Occludin of GI tract tissues vs placebo ([9]; rat, in vivo, po): no difference | blood cell counts vs placebo ([9]; rat, in vivo, po): not statistically significantly different | histological examination (H&E) of organs and GI tract tissues vs saline placebo ([9]; rat, in vivo, po): no significant difference | Physical Form (Ratios Listed as Cation:Anion) [1, 11]: Liquid at 1:1, 1:1.5, 1:2 | Physical Form (Ratios Listed as Cation:Anion) ([1]; cation:anion 1:1.5, room temperature): Liquid at 1:1, 1:1.5, 1:2 | Physical Form (Ratios Listed as Cation:Anion) [1, 12]: Liquid at 1:1, 1:1.5, 1:2 | appearance and physical form ([1]; room temperature, ratio as in label): viscous yellow liquids

Compound: Choline-Octenoic acid
Peak 5-Hour Liraglutide Concentration ([3]; liraglutide with the ionic liquid, intrajejunal injection): 201 ng/mL | effect on blood glucose levels [8]: neither choline-octanoic acid nor choline-octenoic acid decreased blood glucose levels

Compound: CCCCCCCCCCCCCCCC(=O)N[C@@H](CCC(=O)NCCCC[C@H](NC(=O)[C@H](C)NC(=O)[C@H](C)NC(=O)[C@H](CCC(N)=O)NC(=O)CNC(=O)[C@H](CCC(=O)O)NC(=O)[C@H](CC(C)C)NC(=O)[C@H](Cc1ccc(O)cc1)NC(=O)[C@H](CO)NC(=O)[C@H](CO)NC(=O)[C@@H](NC(=O)[C@H](CC(=O)O)NC(=O)[C@H](CO)NC(=O)[C@@H](NC(=O)[C@H](Cc1ccccc1)NC(=O)[C@@H](NC(=O)CNC(=O)[C@H](CCC(=O)O)NC(=O)[C@H](C)NC(=O)[C@@H](N)Cc1cnc[nH]1)[C@@H](C)O)[C@@H](C)O)C(C)C)C(=O)N[C@@H](CCC(=O)O)C(=O)N[C@@H](Cc1ccccc1)C(=O)N[C@H](C(=O)N[C@@H](C)C(=O)N[C@@H](Cc1c[nH]c2ccccc12)C(=O)N[C@@H](CC(C)C)C(=O)N[C@H](C(=O)N[C@@H](CCCNC(=N)N)C(=O)NCC(=O)N[C@@H](CCCNC(=N)N)C(=O)NCC(=O)O)C(C)C)[C@@H](C)CC)C(=O)O [liraglutide]
absorption of liraglutide [10]: only minute absorption

Source: US20240130994A1, “IONIC LIQUID FORMULATIONS FOR TREATING DIABETES” (i2O Therapeutics, Inc., priority 2020, published 2024)
